Reference: publication PMC5152921, “Evolutionary and Functional Diversification of the Vitamin D Receptor-Lithocholic Acid Partnership” (PLoS ONE, 2016)

Tests used:
[1] = target: all VDR orthologs/paralogs tested; test: Competitive ligand binding assays, all receptors together; conditions: range over all eight VDR orthologs/paralogs
Bichir VDR = target: T1, Bichir VDR (Polypterus senegalus, UniProt A0A088GJ14); test: Mammalian 2-hybrid assay (VDR-coregulator interaction, HepG2); format: cell-based; conditions: 100 μM LCA
T1 sequence (A0A088GJ14 1-421): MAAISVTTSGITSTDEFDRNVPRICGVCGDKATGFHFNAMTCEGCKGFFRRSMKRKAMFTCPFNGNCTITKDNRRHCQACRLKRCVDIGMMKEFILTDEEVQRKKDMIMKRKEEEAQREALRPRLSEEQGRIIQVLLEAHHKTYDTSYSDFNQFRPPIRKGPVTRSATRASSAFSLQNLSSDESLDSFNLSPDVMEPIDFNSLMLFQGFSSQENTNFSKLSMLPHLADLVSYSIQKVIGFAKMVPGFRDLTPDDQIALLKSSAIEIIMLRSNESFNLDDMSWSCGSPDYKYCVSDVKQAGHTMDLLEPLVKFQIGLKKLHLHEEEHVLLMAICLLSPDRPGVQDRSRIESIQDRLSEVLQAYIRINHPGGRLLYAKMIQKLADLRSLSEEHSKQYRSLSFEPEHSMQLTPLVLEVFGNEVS
T1 sequence (P19793 1-462 partner): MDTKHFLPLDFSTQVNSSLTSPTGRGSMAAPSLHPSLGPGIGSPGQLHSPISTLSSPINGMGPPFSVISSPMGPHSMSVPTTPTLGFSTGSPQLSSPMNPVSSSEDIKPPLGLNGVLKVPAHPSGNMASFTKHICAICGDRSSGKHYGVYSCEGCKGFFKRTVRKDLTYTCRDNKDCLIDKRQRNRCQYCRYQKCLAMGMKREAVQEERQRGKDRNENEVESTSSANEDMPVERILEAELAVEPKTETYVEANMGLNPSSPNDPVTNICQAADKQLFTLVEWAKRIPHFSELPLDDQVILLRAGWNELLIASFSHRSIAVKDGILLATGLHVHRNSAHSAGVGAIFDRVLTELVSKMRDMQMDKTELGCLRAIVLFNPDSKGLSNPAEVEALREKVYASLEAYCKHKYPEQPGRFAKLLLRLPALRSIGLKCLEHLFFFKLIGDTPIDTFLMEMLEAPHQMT
Text: (§1) Prey constructs included full-length VDRs fused to the herpes simplex VP16 activation domain (pVP16-VDR). Bait constructs consisted of either full-length wild-type human RXR (pM-RXRWT), a truncated human RXR mutant (pM-RXRAF2), or the defined NR box of each member of the SRC/p160 family (pM-SRC1_241-386, pM-GRIP1_479-767, or pM-ACTR392-1005) fused to the yeast Gal4 DNA-binding domain. Reporters included the Gal4 luciferase reporter (5xGal4-TATA-Luc) and pRL-CMV as an internal luciferase control.
(§2) HepG2 cells were seeded into 96-well tissue culture plates as described above and transfected with Lipofectamine 2000 the following day. Each well received 33.6 ng pVP16-VDR, 33.6 ng pM-coregulator (where indicated), 126.6 ng 5XGal4-TATA-Luc, and 3 ng pRL-CMV. […] Positive controls were treated with 1,25D3 and vehicle controls were treated with ethanol. Luciferase activity was measured 24 hours post-exposure using the Dual-Glo Luciferase Assay System described above. Raw luciferase data were normalized to the pRL-CMV luciferase control. VDR-coregulator response was normalized to the pVP16-VDR in the absence of bait constructs. Results were analyzed using a two-way ANOVA followed by Bonferroni’s multiple comparisons test in Prism (GraphPad Inc, San Diego, CA). All experiments were replicated 3 times and conducted as groups of 4 replicate wells.

Human VDR = target: T2, Human VDR (Homo sapiens, UniProt P11473); test: as above; format: cell-based; conditions: 100 μM LCA
T2 sequence (P11473 1-427): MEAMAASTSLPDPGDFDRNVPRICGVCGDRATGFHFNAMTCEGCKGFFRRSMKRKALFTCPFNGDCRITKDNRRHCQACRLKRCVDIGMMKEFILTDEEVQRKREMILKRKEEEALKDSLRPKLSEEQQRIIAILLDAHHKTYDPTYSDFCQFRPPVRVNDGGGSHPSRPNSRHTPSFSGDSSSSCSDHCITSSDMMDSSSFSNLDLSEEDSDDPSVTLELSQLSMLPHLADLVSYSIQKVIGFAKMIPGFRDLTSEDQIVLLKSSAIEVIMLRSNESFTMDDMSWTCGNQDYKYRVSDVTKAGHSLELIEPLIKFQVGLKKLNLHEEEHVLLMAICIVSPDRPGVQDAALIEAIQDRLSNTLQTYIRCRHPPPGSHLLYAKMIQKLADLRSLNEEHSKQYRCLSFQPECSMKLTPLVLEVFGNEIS
Text: as §1, §2

Medaka VDRβ = target: T3, Medaka VDRβ (Oryzias latipes, UniProt B2CCA1); test: as above; format: cell-based; conditions: 100 μM LCA
T3 sequence (B2CCA1 1-425): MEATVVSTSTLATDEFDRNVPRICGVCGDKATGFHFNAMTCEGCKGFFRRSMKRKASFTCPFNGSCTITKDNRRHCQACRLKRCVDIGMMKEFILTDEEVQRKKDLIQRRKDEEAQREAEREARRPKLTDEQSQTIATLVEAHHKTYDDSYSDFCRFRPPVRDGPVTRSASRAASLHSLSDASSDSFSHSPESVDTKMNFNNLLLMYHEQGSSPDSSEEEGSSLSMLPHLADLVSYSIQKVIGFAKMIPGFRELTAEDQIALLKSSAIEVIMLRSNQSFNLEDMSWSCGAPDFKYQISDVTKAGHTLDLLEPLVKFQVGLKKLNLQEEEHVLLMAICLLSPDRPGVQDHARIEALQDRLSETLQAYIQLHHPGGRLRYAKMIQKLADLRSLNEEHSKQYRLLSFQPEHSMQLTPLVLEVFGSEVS
T3 sequence (P19793 1-462 partner): T1 sequence (P19793 1-462 partner)
Text: as §1, §2

With C[C@H](CCC(=O)O)[C@H]1CC[C@H]2[C@@H]3CC[C@@H]4C[C@H](O)CC[C@]4(C)[C@H]3CC[C@]12C [LCA, 5β-cholanic acid-3α-ol] the Ki [1] was 4.2 to 9.5 µM, the VDR-SRC/p160 coactivator interaction (Bichir VDR; any of the SRC/p160 coactivators) was “No protein-protein interaction was observed” and the “VDR-RXRWT interaction (heterodimerization)” value (shortened to “VDR-RXRWT interaction”) (Bichir VDR; bait human RXRWT, presence and absence of SRC1) was “not observed”. The VDR-SRC1 interaction (Human VDR; absence of cotransfected RXRWT) was “successfully recruited SRC1”, the “VDR-RXRWT interaction” value (Human VDR; bait human RXRWT) was “Robust and significant VDR-RXRWT interactions” and the VDR-SRC1 interaction (Human VDR; cotransfection of RXRWT) was “strong VDR-SRC1 interactions”. For the same molecule, the “VDR-RXRWT interaction” value (Medaka VDRβ; bait human RXRWT) was “Robust and significant VDR-RXRWT interactions” and the VDR-SRC1 interaction (Medaka VDRβ; cotransfection of RXRWT) was “strong VDR-SRC1 interactions”.
